Laboratory results from ChEMBL document CHEMBL4630905 (2021).
Activity calls are given as the source filed them. No cut-off for these calls is given here.

How the values were obtained:
[1] = biological target: Alpha-1D adrenergic receptor (Homo sapiens) (UniProt P25100); details: Compound concentration 10.0 uM
[2] = biological target: T1, Bromodomain testis-specific protein (Homo sapiens, UniProt Q58F21); test: BET mutant TR-FRET assay (BRDT BD1)
[3] = biological target: 5-hydroxytryptamine receptor 1A (Homo sapiens) (UniProt P08908); details: Compound concentration 10.0 uM
[4] = biological target: Sodium-dependent serotonin transporter (Homo sapiens) (UniProt P31645); details: Compound concentration 10.0 uM
Peregrin = Peregrin (Homo sapiens, UniProt P55201); test: BRPF1 DiscoverX BROMOscan
[5] = biological target: Histone acetyltransferase KAT2A (Homo sapiens, UniProt Q92830); test: GCN5L2 DiscoverX BROMOscan
Chain of Histone acetyltransferase KAT2A (Q92830 whole entry): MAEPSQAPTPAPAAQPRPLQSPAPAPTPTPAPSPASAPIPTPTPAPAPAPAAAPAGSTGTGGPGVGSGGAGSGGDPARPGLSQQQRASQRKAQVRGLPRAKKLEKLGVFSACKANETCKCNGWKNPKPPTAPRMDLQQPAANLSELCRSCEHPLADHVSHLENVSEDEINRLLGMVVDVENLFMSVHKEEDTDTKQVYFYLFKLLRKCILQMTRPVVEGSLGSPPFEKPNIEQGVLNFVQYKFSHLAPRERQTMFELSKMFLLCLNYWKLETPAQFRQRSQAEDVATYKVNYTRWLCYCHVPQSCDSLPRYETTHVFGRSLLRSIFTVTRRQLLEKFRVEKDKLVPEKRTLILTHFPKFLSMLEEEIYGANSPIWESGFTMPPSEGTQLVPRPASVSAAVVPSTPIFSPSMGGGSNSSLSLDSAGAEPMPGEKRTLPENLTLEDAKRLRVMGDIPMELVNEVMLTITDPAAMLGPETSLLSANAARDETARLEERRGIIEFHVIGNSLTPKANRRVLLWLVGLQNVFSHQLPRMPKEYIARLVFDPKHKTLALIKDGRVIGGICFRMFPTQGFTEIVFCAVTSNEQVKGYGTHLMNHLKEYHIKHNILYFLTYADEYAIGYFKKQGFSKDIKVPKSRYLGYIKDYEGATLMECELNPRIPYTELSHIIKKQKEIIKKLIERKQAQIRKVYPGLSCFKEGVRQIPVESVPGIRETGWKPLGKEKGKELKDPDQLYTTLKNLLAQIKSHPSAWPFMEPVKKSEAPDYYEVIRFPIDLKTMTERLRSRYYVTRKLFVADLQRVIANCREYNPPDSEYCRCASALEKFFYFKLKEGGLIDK

[6] = biological target: 5-hydroxytryptamine receptor 2C (Homo sapiens) (UniProt P28335); details: Compound concentration 10.0 uM
THP-1 = test: Proliferation assay (THP-1 cells); assay type: functional, cell-based; details: Homo sapiens
[7] = biological target: Transcription intermediary factor 1-alpha (Homo sapiens, UniProt O15164); test: TRIM24 (TIF1alpha) (PHD & BD) DiscoverX BROMOscan
[8] = biological target: Bromodomain adjacent to zinc finger domain protein 2B (Homo sapiens, UniProt Q9UIF8); test: BAZ2B DiscoverX BROMOscan
[9] = biological target: Alpha-1B adrenergic receptor (Homo sapiens) (UniProt P35368); details: Compound concentration 10.0 uM
D(4) dopamine receptor = D(4) dopamine receptor (Homo sapiens, UniProt P21917); test: GPCRScan assay: inhibition of D4; design: radioligand conc. used [nm] 0.6 – 1.7, parental cells Stable HEK
Chain of D(4) dopamine receptor (P21917 whole entry): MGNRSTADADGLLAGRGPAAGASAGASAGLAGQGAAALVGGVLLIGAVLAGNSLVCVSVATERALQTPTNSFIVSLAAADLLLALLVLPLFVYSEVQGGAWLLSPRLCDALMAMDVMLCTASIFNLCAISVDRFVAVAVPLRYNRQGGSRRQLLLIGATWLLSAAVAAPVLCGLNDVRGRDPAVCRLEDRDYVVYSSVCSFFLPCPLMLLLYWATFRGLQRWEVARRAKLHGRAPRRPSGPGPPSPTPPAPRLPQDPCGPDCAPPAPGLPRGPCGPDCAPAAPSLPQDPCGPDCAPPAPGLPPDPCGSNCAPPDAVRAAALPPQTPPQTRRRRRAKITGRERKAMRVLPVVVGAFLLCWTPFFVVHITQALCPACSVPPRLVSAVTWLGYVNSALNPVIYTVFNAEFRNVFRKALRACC

[10] = biological target: 5-hydroxytryptamine receptor 3A (Homo sapiens) (UniProt P46098); details: Compound concentration 10.0 uM
Rattus norvegicus = organism: Rattus norvegicus; details: Compound concentration 10.0 uM
[11] = biological target: 5-hydroxytryptamine receptor 2A (Homo sapiens) (UniProt P28223); details: Compound concentration 10.0 uM
Chain of 5-hydroxytryptamine receptor 2A (Homo sapiens) (P28223 whole entry): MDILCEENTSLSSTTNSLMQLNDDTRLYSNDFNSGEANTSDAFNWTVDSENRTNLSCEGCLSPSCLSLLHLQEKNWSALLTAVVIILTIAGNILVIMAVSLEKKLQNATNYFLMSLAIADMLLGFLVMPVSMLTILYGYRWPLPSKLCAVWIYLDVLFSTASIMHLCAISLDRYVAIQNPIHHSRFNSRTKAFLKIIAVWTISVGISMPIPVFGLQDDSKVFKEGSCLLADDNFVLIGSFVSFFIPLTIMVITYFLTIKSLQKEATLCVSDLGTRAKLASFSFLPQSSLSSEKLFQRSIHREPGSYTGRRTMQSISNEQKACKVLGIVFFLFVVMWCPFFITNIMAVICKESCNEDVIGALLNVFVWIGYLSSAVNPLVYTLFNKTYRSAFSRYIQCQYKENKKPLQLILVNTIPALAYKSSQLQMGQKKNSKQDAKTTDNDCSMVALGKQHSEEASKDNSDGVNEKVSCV

[12] = biological target: Histamine H3 receptor (Homo sapiens) (UniProt Q9Y5N1); details: Compound concentration 10.0 uM
[13] = biological target: D(1A) dopamine receptor (Homo sapiens) (UniProt P21728); details: Compound concentration 10.0 uM
[14] = biological target: Sodium-dependent noradrenaline transporter (Homo sapiens) (UniProt P23975); details: Compound concentration 10.0 uM
[15] = biological target: Bromodomain-containing protein 2 (Homo sapiens, UniProt P25440); test: BET mutant TR-FRET assay (BRD2 BD2)
Chain of Bromodomain-containing protein 2 (P25440 whole entry, looked up, change not shown): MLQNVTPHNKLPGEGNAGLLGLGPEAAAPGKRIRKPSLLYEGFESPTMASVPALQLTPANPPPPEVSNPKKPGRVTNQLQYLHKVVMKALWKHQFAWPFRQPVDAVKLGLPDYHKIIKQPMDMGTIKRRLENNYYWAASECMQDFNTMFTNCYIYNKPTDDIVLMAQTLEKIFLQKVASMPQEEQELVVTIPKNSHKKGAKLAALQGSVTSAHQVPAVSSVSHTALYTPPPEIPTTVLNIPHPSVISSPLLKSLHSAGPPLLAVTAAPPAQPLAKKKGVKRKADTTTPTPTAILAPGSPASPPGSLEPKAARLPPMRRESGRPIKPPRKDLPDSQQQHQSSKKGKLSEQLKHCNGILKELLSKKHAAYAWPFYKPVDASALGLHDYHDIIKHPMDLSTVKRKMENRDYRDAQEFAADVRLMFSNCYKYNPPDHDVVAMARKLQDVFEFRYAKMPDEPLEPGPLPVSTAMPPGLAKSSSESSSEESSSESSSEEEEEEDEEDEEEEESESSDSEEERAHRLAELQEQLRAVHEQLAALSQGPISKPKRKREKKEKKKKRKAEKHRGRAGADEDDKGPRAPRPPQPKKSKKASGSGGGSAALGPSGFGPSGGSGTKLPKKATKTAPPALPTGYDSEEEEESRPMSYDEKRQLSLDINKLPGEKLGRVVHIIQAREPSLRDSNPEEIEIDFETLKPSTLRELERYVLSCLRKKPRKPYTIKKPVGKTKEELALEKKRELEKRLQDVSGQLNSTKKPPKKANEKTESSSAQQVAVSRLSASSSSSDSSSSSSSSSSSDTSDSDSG

[16] = biological target: Muscarinic acetylcholine receptor M4 (Homo sapiens) (UniProt P08173); details: Compound concentration 10.0 uM
Chain of Muscarinic acetylcholine receptor M4 (Homo sapiens) (P08173 whole entry): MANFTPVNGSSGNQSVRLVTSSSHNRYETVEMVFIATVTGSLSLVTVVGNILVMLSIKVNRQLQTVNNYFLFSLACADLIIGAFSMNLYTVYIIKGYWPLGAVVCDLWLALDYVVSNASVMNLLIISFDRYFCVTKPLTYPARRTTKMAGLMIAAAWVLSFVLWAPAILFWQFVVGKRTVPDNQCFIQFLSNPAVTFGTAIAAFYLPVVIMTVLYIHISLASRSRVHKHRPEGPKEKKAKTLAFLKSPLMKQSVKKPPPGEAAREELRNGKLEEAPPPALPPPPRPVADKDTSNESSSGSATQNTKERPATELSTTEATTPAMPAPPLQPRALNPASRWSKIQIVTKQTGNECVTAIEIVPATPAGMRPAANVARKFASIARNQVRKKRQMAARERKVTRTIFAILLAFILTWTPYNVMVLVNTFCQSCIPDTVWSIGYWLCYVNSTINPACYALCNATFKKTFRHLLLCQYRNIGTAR

C-C motif chemokine 2 = C-C motif chemokine 2 (Homo sapiens, UniProt P13500); test: In vitro inhibition of MCP-1 in Lipopolysaccharide-stimulated human whole blood; assay type: tissue-based
Chain of C-C motif chemokine 2 (P13500 whole entry): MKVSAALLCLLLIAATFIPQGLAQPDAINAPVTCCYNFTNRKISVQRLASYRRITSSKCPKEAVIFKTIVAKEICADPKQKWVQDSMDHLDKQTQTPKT

[17] = biological target: Bromodomain-containing protein 1 (Homo sapiens, UniProt O95696); test: BRD1 DiscoverX BROMOscan
[18] = biological target: Bromodomain and WD repeat-containing protein 1 (Homo sapiens, UniProt Q9NSI6); test: WDR9 (BD2) DiscoverX BROMOscan
[19] = biological target: D(2) dopamine receptor (Homo sapiens) (UniProt P14416); details: Compound concentration 10.0 uM
[20] = biological target: T1, Bromodomain testis-specific protein; test: BRDT (1,2) DiscoverX BROMOscan
[21] = biological target: Histone acetyltransferase KAT2B (Homo sapiens, UniProt Q92831); test: PCAF DiscoverX BROMOscan
Chain of Histone acetyltransferase KAT2B (Q92831 whole entry): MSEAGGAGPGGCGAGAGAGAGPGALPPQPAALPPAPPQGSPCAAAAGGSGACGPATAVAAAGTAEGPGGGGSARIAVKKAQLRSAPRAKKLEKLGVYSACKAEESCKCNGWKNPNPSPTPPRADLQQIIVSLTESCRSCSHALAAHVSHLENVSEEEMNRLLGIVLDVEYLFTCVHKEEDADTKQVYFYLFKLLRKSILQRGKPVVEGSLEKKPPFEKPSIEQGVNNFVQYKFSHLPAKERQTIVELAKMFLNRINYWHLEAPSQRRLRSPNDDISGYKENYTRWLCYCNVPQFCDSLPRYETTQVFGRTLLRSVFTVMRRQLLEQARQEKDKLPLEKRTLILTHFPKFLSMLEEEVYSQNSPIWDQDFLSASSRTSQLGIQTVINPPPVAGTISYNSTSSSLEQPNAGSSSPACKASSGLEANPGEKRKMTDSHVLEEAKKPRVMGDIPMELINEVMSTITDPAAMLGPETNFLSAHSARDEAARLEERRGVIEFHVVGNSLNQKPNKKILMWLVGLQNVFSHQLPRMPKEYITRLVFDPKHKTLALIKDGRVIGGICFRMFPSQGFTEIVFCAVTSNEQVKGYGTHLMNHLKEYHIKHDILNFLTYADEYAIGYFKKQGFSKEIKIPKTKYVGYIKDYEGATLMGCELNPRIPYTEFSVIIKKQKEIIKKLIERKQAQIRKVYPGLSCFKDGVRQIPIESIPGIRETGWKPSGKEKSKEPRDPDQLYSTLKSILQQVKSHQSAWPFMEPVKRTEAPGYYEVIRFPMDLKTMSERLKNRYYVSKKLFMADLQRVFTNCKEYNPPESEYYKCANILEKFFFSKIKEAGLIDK

HL-60 = test: Proliferation assay (HL60 cells); assay type: functional, cell-based; details: Homo sapiens
[22] = biological target: 5-hydroxytryptamine receptor 1B (Homo sapiens) (UniProt P28222); details: Compound concentration 10.0 uM
[23] = biological target: Nucleosome-remodeling factor subunit BPTF (Homo sapiens, UniProt Q12830); test: FALZ DiscoverX BROMOscan
[24] = biological target: T2, GABA-A receptor; anion channel (Rattus norvegicus) (UniProt O09028+P15431+P18506+P18508+P19969+P20236+P23574+P23576+P28471+P28473+P30191+P62813+P63079+P63138+Q91ZM7+Q9ES14); details: Compound concentration 10.0 uM
CREB-binding protein = CREB-binding protein (Homo sapiens, UniProt Q92793); test: CREBBP DiscoverX BROMOscan
[25] = biological target: 5-hydroxytryptamine receptor 1D (Homo sapiens) (UniProt P28221); details: Compound concentration 10.0 uM
[26] = biological target: Bromodomain-containing protein 8 (Homo sapiens, UniProt Q9H0E9); test: BRD8 (BD1) DiscoverX BROMOscan
[27] = biological target: SWI/SNF-related matrix-associated actin-dependent regulator of chromatin subfamily A member 2 (Homo sapiens, UniProt P51531); test: SMARCA2 DiscoverX BROMOscan
Interleukin-6 = Interleukin-6 (Homo sapiens, UniProt P05231); test: In vitro inhibition of IL-6 in Lipopolysaccharide-stimulated human whole blood; assay type: tissue-based
[28] = biological target: Beta-3 adrenergic receptor (Homo sapiens) (UniProt P13945); details: Compound concentration 10.0 uM
[29] = biological target: Histamine H2 receptor (Homo sapiens) (UniProt P25021); details: Compound concentration 10.0 uM
MV4-11 = test: Proliferation assay (MV-4−11 cells); assay type: functional, cell-based; details: Homo sapiens
[30] = biological target: T2, GABA-A receptor; anion channel (Rattus norvegicus); details: Compound concentration 10.0 uM; remark: listed apart in the source
[31] = biological target: Muscarinic acetylcholine receptor M1 (Homo sapiens) (UniProt P11229); details: Compound concentration 10.0 uM
[32] = biological target: Sodium-dependent dopamine transporter (Homo sapiens) (UniProt Q01959); details: Compound concentration 10.0 uM
[33] = biological target: Histamine H4 receptor (Homo sapiens) (UniProt Q9H3N8); details: Compound concentration 10.0 uM
[34] = biological target: Histone acetyltransferase p300 (Homo sapiens, UniProt Q09472); test: EP300 DiscoverX BROMOscan
[35] = biological target: Bromodomain-containing protein 7 (Homo sapiens, UniProt Q9NPI1); test: BRD7 DiscoverX BROMOscan
[36] = biological target: D(4) dopamine receptor (Homo sapiens) (UniProt P21917); details: Compound concentration 10.0 uM
Chain of D(4) dopamine receptor (Homo sapiens) (P21917 whole entry): as the sequence (P21917 whole entry) above

[37] = biological target: Alpha-2A adrenergic receptor (Homo sapiens) (UniProt P08913); details: Compound concentration 10.0 uM
Chain of Alpha-2A adrenergic receptor (Homo sapiens) (P08913 whole entry): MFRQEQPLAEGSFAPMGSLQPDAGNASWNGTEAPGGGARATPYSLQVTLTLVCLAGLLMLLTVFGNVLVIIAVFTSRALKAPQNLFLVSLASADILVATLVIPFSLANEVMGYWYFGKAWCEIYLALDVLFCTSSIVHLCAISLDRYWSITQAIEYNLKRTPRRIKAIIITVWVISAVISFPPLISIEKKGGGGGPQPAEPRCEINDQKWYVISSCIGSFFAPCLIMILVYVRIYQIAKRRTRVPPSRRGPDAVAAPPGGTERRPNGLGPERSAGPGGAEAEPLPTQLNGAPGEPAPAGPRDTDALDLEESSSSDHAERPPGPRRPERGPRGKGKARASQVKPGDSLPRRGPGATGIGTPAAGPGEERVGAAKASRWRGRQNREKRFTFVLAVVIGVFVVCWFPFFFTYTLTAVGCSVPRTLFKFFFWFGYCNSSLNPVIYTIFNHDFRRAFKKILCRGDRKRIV

Chain of Alpha-1D adrenergic receptor (Homo sapiens) (P25100 whole entry): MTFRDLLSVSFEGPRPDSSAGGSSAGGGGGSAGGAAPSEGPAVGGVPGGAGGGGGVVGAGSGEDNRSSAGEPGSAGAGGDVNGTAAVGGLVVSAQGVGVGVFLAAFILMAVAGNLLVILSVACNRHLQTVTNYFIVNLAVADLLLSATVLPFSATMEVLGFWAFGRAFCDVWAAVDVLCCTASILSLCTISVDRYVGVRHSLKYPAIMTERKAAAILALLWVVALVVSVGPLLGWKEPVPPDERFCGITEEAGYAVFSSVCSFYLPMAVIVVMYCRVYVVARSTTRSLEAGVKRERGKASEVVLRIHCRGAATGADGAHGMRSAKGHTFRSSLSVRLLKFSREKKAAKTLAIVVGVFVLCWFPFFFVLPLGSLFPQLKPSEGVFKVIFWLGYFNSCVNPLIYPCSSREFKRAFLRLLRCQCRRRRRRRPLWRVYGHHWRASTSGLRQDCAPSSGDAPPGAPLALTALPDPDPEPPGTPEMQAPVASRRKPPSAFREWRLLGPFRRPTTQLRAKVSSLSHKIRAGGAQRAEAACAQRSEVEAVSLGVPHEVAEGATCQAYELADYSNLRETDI

Cc1cc2c(-c3ccco3)cnc(N[C@@H]3CCN(C)C[C@H]3C(=O)NC3CCCCC3)c2[nH]c1=O [GSK789]
inhibition [1]: 36.6% | pIC50 [2]: 6.2 | inhibition [3]: 17.3% | inhibition [4]: 17.7% | Kd (Peregrin): 31.6 µM | Kd [5]: 31.6 µM | inhibition [6]: 14% | IC50 (THP-1): 0.258 µM (active) | Kd [7]: 31.6 µM | Kd [8]: 31.6 µM | inhibition [9]: 11.8% | Ki (D(4) dopamine receptor; read-out: Ki): 1.01 µM | Ki (D(4) dopamine receptor; read-out: pKi (converted)): 1.01 µM | inhibition [10]: 31.8% | inhibition (Rattus norvegicus): 3.9% | inhibition [11]: -5.01% | inhibition [12]: -9.93% | inhibition [13]: 27.3% | inhibition [14]: 30.5% | pIC50 [15]: 4.7 | inhibition [16]: 17.1% | IC50 (C-C motif chemokine 2): 0.67 µM (active) | Kd [17]: 31.6 µM | Kd [18]: 31.6 µM | inhibition [19]: -4.38% | Kd [20]: 0.1 µM | Kd [21]: 31.6 µM | IC50 (HL-60): 0.39 µM (active) | inhibition [22]: 3.37% | Kd [23]: 31.6 µM | inhibition [24]: 24.7% | Kd (CREB-binding protein): 31.6 µM | inhibition [25]: -6.42% | Kd [26]: 31.6 µM | Kd [27]: 31.6 µM | IC50 (Interleukin-6): 3.55 µM (active) | inhibition [28]: 13.8% | inhibition [29]: -1.12% | IC50 (MV4-11): 0.125 µM (active) | inhibition [30]: 14.8% | inhibition [31]: -9.42% | inhibition [32]: 28.5% | inhibition [33]: 15.9% | Kd [34]: 25.1 µM | Kd [35]: 25.1 µM | inhibition [36]: 97.9% | inhibition [37]: -3.97%
